Source: patent US20060018872A1, “Poly(lactic acid) copolymer hydrogels and related methods of drug delivery” (priority 2004, published 2006)
Converted amounts (≈) assume the structure as drawn. Counter-ions that a name gives are not always drawn.

Key:
physchem = test: physchem
From the text: The use of thermo-reversible triblock gels (Pluronics) as delivery agents for anti-inflammatories (naproxen and indomethacin), local anesthetics, and anti-cancer agents has been studied (Sharma, P. K. and Bhatia, S. R. Effect of Anti-Inflammatories on Pluronic® F127: Micellar Assembly, Gelation and Partitioning. Int J Pharmaceutics, in press, 2004). An ultraviolet spectroscopy technique has been developed to measure rapidly the solubility and micelle-water partition coefficients of hydrophobic pharmaceuticals in micellar gels and has been applied to PLA-PEO-PLA hydrogels. In addition to evaluating partitioning, release kinetics in PLA-PEO-PLA systems have also been studied.

[1] = Release kinetics of pharmaceuticals from PLA-PEO-PLA gels at 25° C.; assay type: physicochemical; settings: both polymers (1L and 2D/L), FIG. 7A
[2] = cited from earlier work

COc1ccc2c(c1)c(CC(=O)O)c(C)n2C(=O)c1ccc(Cl)cc1 [Indomethacin, indomethacin]
micelle-water partition coefficient (physchem): 108±8 | solubility (physchem; water): 25 µg/mL (≈ 69.9 µM)

COC(=O)c1ccc(O)cc1 [methyl paraben]
release of methyl paraben from PLA-PEO-PLA gels [1]: majority of the methyl paraben being quickly released within the first five hours

CC1=C(CC(=O)O)c2cc(F)ccc2/C1=C\c1ccc([S+](C)[O-])cc1 (centres unmarked) [sulindac]
time of complete release ([2]; from poly(styrene-divinylbenzene) microspheres): 24 h

CCCCNc1ccc(C(=O)OCCN(C)C)cc1 [tetracaine hydrochloride]
release behavior ([2]; from poly(DL-lactic-co-glycolic acid)): burst release
